Like-named read-outs stand apart in the source and are kept apart here.
Legend:
[1] = system: primary human corneal epithelial cells; assay: Cytokine response in primary human corneal epithelial cells stimulated with IFNγ, IL-1β or IL-17A; type: cell-based; conditions: Corneal epithelial cell, 24 h, 5 μM compound
Method: Primary corneal epithelial cells were obtained from Life Technologies (Carlsbad, Calif.) and maintained in Keratinocyte-SFM media supplemented with EGF and bovine pituitary extract (Life Technologies). Cells were seeded at 1e5 cells/ml and incubated at 37° C. in a humidified atmosphere at 5% CO2 overnight to adhere. Cells were supplement-starved overnight in unsupplemented K-SFM media containing 0.5% BSA then treated with compound for 1 h at 37° C. in a humidified atmosphere at 5% CO2. DMSO at a final concentration of 0.1% served as the non-inhibited control. Cells were stimulated with 20 ng/ml of human recombinant IFNγ (R & D Systems, Minneapolis, Minn.), IL-1β (R & D Systems), or IL-17A (eBioscience, San Diego, Calif.) for 24 h. Supernatant was then collected and analyzed for cytokine concentrations using the Bio-Plex Pro Human Cytokine 17-Plex Panel (Bio-Rad Laboratories, Hercules, Calif.) according to the manufacturer's instructions. Magnetic beads were measured on the Bio-Plex MAGPIX multiplex reader instrument using the accompanying xPONENT 4.2 acquisition software (Bio-Rad Laboratories). Data were analyzed via the Bio-Plex Manager software v6.1 (Bio-Rad Laboratories).
Percent inhibition of cytokines in culture supernatant during 5 μM compound treatment of primary corneal epithelial cells. Shown below are data from a representative experiment.

ATAD2B = target: T1, ATAD2B (Homo sapiens, UniProt Q9ULI0); assay: Bromodomain binding assay: ATAD2B
T1 construct: T7 phage strains displaying bromodomains were grown in parallel; made in house; host or cells: E. coli host derived from BL21, infected with T7 phage
Method: (§1) T7 phage strains displaying bromodomains were grown in parallel in 24-well blocks in an E. coli host derived from the BL21 strain. E. coli were grown to log-phase and infected with T7 phage from a frozen stock (multiplicity of infection=0.4) and incubated with shaking at 32° C. until lysis (90-150 minutes). The lysates were centrifuged (5,000×g) and filtered (0.2 μm) to remove cell debris. […] The liganded beads were blocked with excess biotin and washed with blocking buffer (SeaBlock (Pierce), 1% BSA, 0.05 Tween 20, 1 mM DTT) to remove unbound ligand and to reduce non-specific phage binding. […] Test compounds (T62 and 46) were prepared as 1000× stocks in 100% DMSO and subsequently diluted 1:10 in monoethylene glycol (MEG) to create stocks at 100× the screening concentration (resulting stock solution is 10% DMSO/90% MEG). The compounds were then diluted directly into the assays such that the final concentration of DMSO and MEG were 0.1% and 0.9%, respectively. All reactions were performed in polystyrene 96-well plates in a final volume of 0.135 ml. […] The bromodomain concentration in the eluates was measured by qPCR. Compounds were assayed for binding activity against a panel of 40 bromodomain-containing proteins.

BAZ2B = target: T2, BAZ2B (Homo sapiens, UniProt Q9UIF8); assay: Bromodomain binding assay: BAZ2B
T2 construct: T7 phage strains displaying bromodomains were grown in parallel; made in house; host or cells: E. coli host derived from BL21, infected with T7 phage
Method: as §1

BRD1 = target: T3, BRD1 (Homo sapiens, UniProt O95696); assay: Bromodomain binding assay: BRD1
T3 construct: T7 phage strains displaying bromodomains were grown in parallel; made in house; host or cells: E. coli host derived from BL21, infected with T7 phage
Method: as §1

BRPF1 = target: T4, BRPF1 (Homo sapiens, UniProt P55201); assay: Bromodomain binding assay: BRPF1
T4 construct: T7 phage strains displaying bromodomains were grown in parallel; made in house; host or cells: E. coli host derived from BL21, infected with T7 phage
Method: as §1

CECR2 = target: T5, CECR2 (Homo sapiens, UniProt Q9BXF3); assay: Bromodomain binding assay: CECR2
T5 construct: T7 phage strains displaying bromodomains were grown in parallel; made in house; host or cells: E. coli host derived from BL21, infected with T7 phage
Method: as §1

GCN5L2 = target: T6, GCN5L2 (Homo sapiens, UniProt Q92830); assay: Bromodomain binding assay: GCN5L2
T6 construct: made in house; host or cells: E. coli host derived from the BL21 strain (T7 phage lysate)
Method: as §1

SMARCA4 = target: T7, SMARCA4 (Homo sapiens, UniProt P51532); assay: Bromodomain binding assay: SMARCA4
T7 construct: made in house; host or cells: E. coli host derived from the BL21 strain (T7 phage lysate)
Method: as §1

WDR9 = target: T8, WDR9 (Homo sapiens, UniProt Q9NSI6); assay: Bromodomain binding assay: WDR9
T8 construct: made in house; host or cells: E. coli host derived from the BL21 strain (T7 phage lysate)
Method: as §1

[2] = system: Asthmatic lung fibroblasts; assay: TGF-β-induced fibrotic response (α-SMA expression) in asthmatic lung fibroblasts; type: cell-based; conditions: Homo sapiens, Fibroblast; 2 ng/ml TGF-β1, 48 h; Western blot; read-out: Inhibition of α-SMA expression, EC50 (μM), Asthmatic lung fibroblasts
Method: Nontransformed, human fetal lung fibroblasts (HFL-1) were obtained from ATCC (Manassas, Va.) and maintained in F12K media containing 10% (v/v) charcoal-dextran treated, heat inactivated FBS (Omega Scientific, Tarzana, Calif.). Primary lung fibroblasts isolated from a patient diagnosed with asthma were obtained from Lonza (Allendale, N.J.) and maintained in FGM-2 fibroblast growth medium (Lonza). Cells were seeded at a density to provide 50-60% confluence after an overnight incubation at 37° C. in a humidified atmosphere at 5% CO2. […] Protein content was determined using the Bio-Rad Dc Protein kit (Bio-Rad Laboratories, Hercules, Calif.), and normalized prior to adding an equal volume of 2× Laemmli sample buffer (Sigma). Proteins in the whole cell lysates were resolved via SDS-PAGE gel electrophoresis, and α-SMA was detected via Western blot analysis using a rabbit anti-human α-SMA polyclonal antibody (Abcam, Cambridge, Mass.). α-SMA signal was normalized to the signal of β-actin as detected using mouse anti-human […] antibody (Cell Signaling Technology). DyLight 680 and 800 conjugated secondary antibodies were used and the infrared signals were detected using the Odyssey Imaging System (LI-COR Biotechnology, Lincoln, Nebr.).

[3] = +20 ng/ml IFNγ, read-out: Percent inhibition of cytokine relative to DMSO controls, G-CSF
[4] = +20 ng/ml IFNγ, read-out: Percent inhibition of cytokine relative to DMSO controls, GM-CSF
[5] = +20 ng/ml IFNγ, read-out: Percent inhibition of cytokine relative to DMSO controls, IL-6
[6] = +20 ng/ml IFNγ, read-out: Percent inhibition of cytokine relative to DMSO controls, MCP-1
[7] = +20 ng/ml IL-1β, read-out: Percent inhibition of cytokine relative to DMSO controls, G-CSF
[8] = +20 ng/ml IL-1β, read-out: Percent inhibition of cytokine relative to DMSO controls, GM-CSF
[9] = +20 ng/ml IL-1β, read-out: Percent inhibition of cytokine relative to DMSO controls, IL-6
[10] = +20 ng/ml IL-1β, read-out: Percent inhibition of cytokine relative to DMSO controls, MCP-1
[11] = +20 ng/ml IL-17A, read-out: Percent inhibition of cytokine relative to DMSO controls, G-CSF
[12] = +20 ng/ml IL-17A, read-out: Percent inhibition of cytokine relative to DMSO controls, GM-CSF
[13] = +20 ng/ml IL-17A, read-out: Percent inhibition of cytokine relative to DMSO controls, IL-6
[14] = +20 ng/ml IL-17A, read-out: Percent inhibition of cytokine relative to DMSO controls, MCP-1

T1 sequence (Q9ULI0 951-1066 limits assumed, species assumed): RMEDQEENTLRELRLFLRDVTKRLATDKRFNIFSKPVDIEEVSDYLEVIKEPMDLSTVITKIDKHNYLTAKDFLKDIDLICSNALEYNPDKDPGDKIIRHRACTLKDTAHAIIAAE
T8 sequence (Q9NSI6 1313-1418 limits assumed): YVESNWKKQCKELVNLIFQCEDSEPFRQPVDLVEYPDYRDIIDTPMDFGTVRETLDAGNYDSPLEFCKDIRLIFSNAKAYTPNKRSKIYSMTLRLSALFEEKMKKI
T7 sequence (P51532 1453-1564 limits assumed): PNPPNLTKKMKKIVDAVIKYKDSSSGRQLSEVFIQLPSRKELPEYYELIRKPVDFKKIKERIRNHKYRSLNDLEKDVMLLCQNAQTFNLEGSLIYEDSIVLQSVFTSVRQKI
T4 sequence (P55201 628-732 limits assumed, species assumed): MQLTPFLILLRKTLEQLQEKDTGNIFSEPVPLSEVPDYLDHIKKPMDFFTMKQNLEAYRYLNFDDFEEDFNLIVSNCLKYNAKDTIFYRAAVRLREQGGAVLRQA
T2 sequence (Q9UIF8 2060-2164 limits assumed, species assumed): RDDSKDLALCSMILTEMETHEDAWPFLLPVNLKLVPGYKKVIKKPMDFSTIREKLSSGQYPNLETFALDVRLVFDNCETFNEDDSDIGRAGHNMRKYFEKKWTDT
T6 sequence (Q92830 728-832 limits assumed): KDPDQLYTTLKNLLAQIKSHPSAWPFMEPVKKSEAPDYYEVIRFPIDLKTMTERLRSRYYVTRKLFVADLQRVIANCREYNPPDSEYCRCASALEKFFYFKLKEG
T3 sequence (O95696 562-666 limits assumed, species assumed): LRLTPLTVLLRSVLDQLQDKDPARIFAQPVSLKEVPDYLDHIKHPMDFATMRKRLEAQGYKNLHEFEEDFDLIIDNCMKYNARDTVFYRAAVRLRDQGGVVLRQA
T5 sequence (Q9BXF3 434-538 limits assumed, species assumed): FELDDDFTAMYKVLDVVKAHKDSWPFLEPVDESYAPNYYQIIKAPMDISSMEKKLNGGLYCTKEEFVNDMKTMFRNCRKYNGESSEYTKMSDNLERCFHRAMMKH

Compound: CCOc1cc(C(=O)N2CCC(N3CCCC3)CC2)ccc1Nc1cc2c(cn1)N(C)C(=O)c1ccccc1N2C [Compound 46, 3-(2-Ethoxy-4-(4-(pyrrolidin-1-yl)piperidine-1-carbonyl)phenylamino)-5,11-dimethyl-5H-benzo[e]pyrido[3,4-b][1,4]diazepin-10(11H)-one]
- inhibition at 5 µM [1, 3]: 42.1%
- inhibition at 5 µM [1, 4]: 30.4%
- inhibition at 5 µM [1, 5]: 84.4%
- inhibition at 5 µM [1, 6]: 93.4%
- inhibition at 5 µM [1, 7]: 86.3%
- inhibition at 5 µM [1, 8]: 97%
- inhibition at 5 µM [1, 9]: 92.2%
- inhibition at 5 µM [1, 10]: 52.1%
- inhibition at 5 µM [1, 11]: 90.3%
- inhibition at 5 µM [1, 12]: 92.5%
- inhibition at 5 µM [1, 13]: 94.7%
- inhibition at 5 µM [1, 14]: 42.7%
- Kd (ATAD2B): > 20 µM
- Kd (BAZ2B): > 20 µM
- Kd (BRD1): > 20 µM
- Kd (BRPF1): > 20 µM
- Kd (CECR2): > 20 µM
- Kd (GCN5L2): > 20 µM
- Kd (SMARCA4): > 20 µM
- Kd (WDR9): > 20 µM

Compound: CCOc1cc(C(=O)N2CCC(N3CCN(C)CC3)CC2)ccc1Nc1cc2c(cn1)N(C)C(=O)c1ccccc1N2C [Compound 61]
- EC50 [2]: 3.69 µM

Compound: CCOc1cc(C(=O)N2CC[C@@H](N(C)C)C2)ccc1Nc1cc2c(cn1)N(C)C(=O)c1ccccc1N2C [Compound 115]
- EC50 [2]: 1.37 µM

Compound: CCOc1cc(C(=O)N[C@H]2CC[C@H](O)CC2)ccc1Nc1cc2c(cn1)N(C)C(=O)c1ccccc1N2C [Compound T62]
- inhibition at 5 µM [1, 3]: 28%
- inhibition at 5 µM [1, 4]: 25.4%
- inhibition at 5 µM [1, 5]: 67.9%
- inhibition at 5 µM [1, 6]: 89.5%
- inhibition at 5 µM [1, 7]: 89.3%
- inhibition at 5 µM [1, 8]: 97.1%
- inhibition at 5 µM [1, 9]: 88.7%
- inhibition at 5 µM [1, 10]: 58%
- inhibition at 5 µM [1, 11]: 86.4%
- inhibition at 5 µM [1, 12]: 89.7%
- inhibition at 5 µM [1, 13]: 89.6%
- inhibition at 5 µM [1, 14]: 36%
- Kd (ATAD2B): > 20 µM
- Kd (BAZ2B): > 20 µM
- Kd (BRD1): > 20 µM
- Kd (BRPF1): > 20 µM
- Kd (CECR2): > 20 µM
- Kd (GCN5L2): > 20 µM
- Kd (SMARCA4): > 20 µM
- Kd (WDR9): > 20 µM
